Assay results taken from ChEMBL document CHEMBL3390842 (Medchemcomm, 2012).
Activity calls are given as the source filed them. No cut-off for these calls is given here.

How the values were obtained:
[1] = target: T1, G-protein coupled receptor 35 (Homo sapiens, UniProt Q9HC97); assay: Agonist activity at GPR35 in human HT-29 cells assessed as induction of whole cell dynamic mass redistribution at 32 uM after 50 mins by resonant waveguide grating biosensor analysis in presence of GPR35 antagonist ML-145; assay type: cell-based
T1 sequence (Q9HC97 whole entry): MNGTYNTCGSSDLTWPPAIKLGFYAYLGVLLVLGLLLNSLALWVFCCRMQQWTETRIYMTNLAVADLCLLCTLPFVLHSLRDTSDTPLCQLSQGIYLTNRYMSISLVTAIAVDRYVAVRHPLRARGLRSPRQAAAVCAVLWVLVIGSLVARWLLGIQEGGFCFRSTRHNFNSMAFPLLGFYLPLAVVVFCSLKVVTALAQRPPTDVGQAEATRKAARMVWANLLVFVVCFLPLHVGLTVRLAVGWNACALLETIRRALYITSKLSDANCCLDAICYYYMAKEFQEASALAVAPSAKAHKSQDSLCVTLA

[2] = target: T1, G-protein coupled receptor 35; assay type: cell-based, HT-29
[3] = target: T1, G-protein coupled receptor 35; assay type: cell-based, U2OS
[4] = target: T1, G-protein coupled receptor 35; assay: Agonist activity at GPR35 in human HT-29 cells assessed as induction of whole cell dynamic mass redistribution at 128 uM after 50 mins by resonant waveguide grating biosensor analysis in presence of GPR35 antagonist ML-145; assay type: cell-based

O=C(c1cc(O)c(O)c([N+](=O)[O-])c1)c1ccccc1F
Activity [1]: Active | EC50 [2]: 8.66 µM | EC50 [3]: 54.4 µM

CC(=O)C(=Cc1cc(O)c(O)c([N+](=O)[O-])c1)C(C)=O [NITECAPONE]
EC50 [2]: 0.82 µM | EC50 [3]: 17.1 µM

O=[N+]([O-])c1ccc(O)c([N+](=O)[O-])c1
Activity [4]: Active

O=[N+]([O-])c1cc(O)c(O)c([N+](=O)[O-])c1
Activity [1]: inactive

CCN(CC)C(=O)/C(C#N)=C/c1cc(O)c(O)c([N+](=O)[O-])c1 [ENTACAPONE]
EC50 [2]: 5.66 µM | EC50 [3]: 65.6 µM
